Measured values taken from ChEMBL document CHEMBL1148009, “Synthesis of amphiphilic galactopyranosyl diamines and amino alcohols as antitubercular agents” (2007).
Converted amounts (≈) assume the structure as drawn.

System: Mycobacterium tuberculosis
Experiment: Antitubercular activity against Mycobacterium tuberculosis H37Rv
Assay type: functional

Compound | MIC
CCCCCCCCCCCCCCCCCC(=O)NCCCN(C[C@H]1OC(O)[C@H](O)[C@@H](O)[C@H]1O)C(=O)CCCCCCCCCCCCCCCCC (stereo partly specified) | > 50 µg/mL
CCCCCCCCCCCCCCCC(=O)NCCCN(C[C@H]1O[C@@H]2OC(C)(C)O[C@@H]2[C@H]2OC(C)(C)O[C@H]21)C(=O)CCCCCCCCCCCCCCC | > 50 µg/mL
CCCCCCCCCCCCCCCCCC(=O)N(CCO)C[C@H]1O[C@@H]2OC(C)(C)O[C@@H]2[C@H]2OC(C)(C)O[C@H]21 | 25 µg/mL (≈ 43.9 µM)
CC1(C)O[C@H]2[C@@H](O1)[C@@H](CNCCCN)O[C@@H]1OC(C)(C)O[C@@H]12 | > 50 µg/mL
CCCCCCCCCCCCCCCCCC(=O)NCCNC[C@H]1O[C@@H]2OC(C)(C)O[C@@H]2[C@H]2OC(C)(C)O[C@H]21 | < 3.12 µg/mL
CO[C@H]1/C=C/O[C@@]2(C)Oc3c(C)c(O)c4c(O)c(c(/C=N/N5CCN(C)CC5)c(O)c4c3C2=O)NC(=O)/C(C)=C\C=C\[C@H](C)[C@H](O)[C@@H](C)[C@@H](O)[C@@H](C)[C@H](OC(C)=O)[C@@H]1C [RIFAMPIN] | 1 µg/mL (≈ 1.22 µM)
CC1(C)O[C@H]2[C@@H](O1)[C@@H](CNCCO)O[C@@H]1OC(C)(C)O[C@@H]12 | > 50 µg/mL
CCCCCCCCCCCCCCCCCC(=O)NCCN(C[C@H]1OC(O)[C@H](O)[C@@H](O)[C@H]1O)C(=O)CCCCCCCCCCCCCCCCC (stereo partly specified) | > 50 µg/mL
CCCCCCCCCCCCCCCCCC(=O)OCCN(C[C@H]1O[C@@H]2OC(C)(C)O[C@@H]2[C@H]2OC(C)(C)O[C@H]21)C(=O)CCCCCCCCCCCCCCCCC | > 50 µg/mL
CCCCCCCCCCCCCCCCCC(=O)NCCCNC[C@H]1O[C@@H]2OC(C)(C)O[C@@H]2[C@H]2OC(C)(C)O[C@H]21 | 12.5 µg/mL (≈ 21.4 µM)
CCCCCCCCCCCCCCCC(=O)NCCN(C[C@H]1O[C@@H]2OC(C)(C)O[C@@H]2[C@H]2OC(C)(C)O[C@H]21)C(=O)CCCCCCCCCCCCCCC | > 50 µg/mL
